# PMC9220351, “Evaluation of a Conformationally Constrained Indole Carboxamide as a Potential Efflux Pump Inhibitor in Pseudomonas aeruginosa” (Antibiotics, 2022)
# Legend:
# [1] = tested on: P. aeruginosa ATCC 27853 inner membrane; assay: Flow cytometry propidium iodide (PI) assay for inner membrane permeabilization; type: cell-based, Pseudomonas aeruginosa; conditions: no inner membrane permeabilization below this concentration
# Protocol: Membrane disruption was assayed with two approaches: (1) a flow cytometry-based propidium iodide (PI) assay to monitor inner membrane permeabilization, and (2) a nitrocefin (NCF) assay to monitor outer membrane permeabilization. NCF is a chromogenic cephalosporin that changes from yellow to red when the amide bond in the β-lactam ring is hydrolyzed by a β-lactamase. The rate of hydrolysis in intact cells is slow, as it is limited by the rate of diffusion of periplasmic β-lactamase across the outer membrane. However, in the presence of an agent that permeabilizes the outer membrane, the rate of hydrolysis will increase [33]. […] Polymyxin B was used as a positive control (Figure 2B). […] Cells whose membranes remain intact exclude PI and remain non-fluorescent, while cells with compromised membrane integrity allow PI to enter and bind to DNA, resulting in fluorescence.
# A flow cytometry assay used for assessing potential inner membranes permeabilization of P. aeruginosa bacterial cells to PI was conducted using the LIVE/DEAD BacLight Kit from Invitrogen (Waltham, MA, USA). […] Intracellular PI fluorescence was detected by flow cytometry using a CytoFlex (Beckman Coulter Inc., Brea, CA, USA). […] For each sample, the fluorescence of 10,000 individual bacterial cells was measured, and the percent of cells that stained positive for PI fluorescence was calculated.
# [2] = tested on: P. aeruginosa ATCC 27853 efflux of EtBr; assay: Ethidium bromide (EtBr) efflux inhibition assay; type: cell-based, Pseudomonas aeruginosa; conditions: fluorescence, after glucose activation
# Protocol: The ability of TXA09155 to inhibit efflux in P. aeruginosa was studied using two quantitative assays to establish efflux inhibition as the MOA. In the first assay, the efflux of ethidium bromide (EtBr) by P. aeruginosa cells is studied in the presence of different concentrations of TXA09155. Wild-type P. aeruginosa ATCC 27853 cells were incubated with EtBr to allow for the intracellular accumulation and were treated with CCCP to inhibit active efflux. […] Following activation by the addition of glucose, the efflux of EtBr can be followed in real time as a decrease in fluorescence based on the concentration of TXA09155.
# Efflux of EtBr from P. aeruginosa in the presence of TXA09155 was carried out as described previously.
# P. aeruginosa ATCC 27853 [3] = assay: Intracellular ATP levels; type: cell-based, Pseudomonas aeruginosa; conditions: 1/4th and 1/8th MIC, 3 h
# Protocol: P. aeruginosa intracellular ATP levels were determined as described previously using an ATP determination kit (catalog number A22066; Thermo Fisher Scientific, Waltham, MA, USA). […] After treatment, the cells were lysed in chloroform, which was subsequently removed by boiling at 80 °C. The persistent ATP from cell lysate was measured in a 96-well black flat-bottom plate and plotted as relative luminescence units. […] Error bars represent the standard deviation of triplicates.
# P. aeruginosa ATCC 27853 [4] = assay: Time-kill studies; type: cell-based, Pseudomonas aeruginosa; conditions: highest concentration tested
# Protocol: Time-kill studies were carried out as described previously with the following changes.
# Solubility at pH 7.4 = type: physicochemical; conditions: pH 7.4, aqueous buffer
# [5] = Metabolic stability in human liver microsomes; type: in vitro ADME
# Protocol: (§1) The metabolic stability of TXA09155 was determined in human, mouse, and rat liver microsomes by Eurofins (St. Charles, MO, USA) using the substrate depletion method (in vitro half-life (t1/2) method). Quantification was performed by LC/MS/MS. In this assay, depletion of the parent compound is measured over time to determine the compound’s in vitro t1/2 and hepatic extraction ratios (ER). This is used to predict metabolic clearance. […] This assay utilizes electrophysiology measurements on the electric current passing through the hERG channel heterologously expressed in a stable CHO cell line. Channels are open by a hERG-specific voltage protocol, and the compound effects are directly characterized by their block of the hERG current. The assay is performed on an automated platform, Q-Patch.
# [6] = Metabolic stability in rat liver microsomes; type: in vitro ADME
# Protocol: as §1
# CYP1A2 = CYP1A2 (Homo sapiens, UniProt P05177); assay: CYP inhibition; type: in vitro ADME; conditions: read-out: CYP Inhibition IC50, CYP 1A2
# CYP2C19 = CYP2C19 (Homo sapiens, UniProt P33261); assay: CYP inhibition; type: in vitro ADME; conditions: read-out: CYP Inhibition IC50, CYP 2C19
# CYP2C9 = CYP2C9 (Homo sapiens, UniProt P11712); assay: CYP inhibition; type: in vitro ADME; conditions: read-out: CYP Inhibition IC50, CYP 2C9
# CYP2D6 = CYP2D6 (Homo sapiens, UniProt P10635); assay: CYP inhibition; type: in vitro ADME; conditions: read-out: CYP Inhibition IC50, CYP 2D6
# CYP3A4 = CYP3A4 (Homo sapiens, UniProt P08684); assay: CYP inhibition; type: in vitro ADME; conditions: read-out: CYP Inhibition IC50, CYP 3A4
# [7] = CellTiterGlo cytotoxicity assay; type: cell-based; conditions: human, 293T cells
# human RBCs = assay: Hemolytic activity; type: cell-based; conditions: 12.5 to 100 µM
# hERG channel = hERG channel (Homo sapiens, UniProt Q12809); assay: hERG patch clamp assay (Q-Patch, CHO cell line); type: cell-based
# Protocol: as §1
# [8] = tested on: P. aeruginosa K1455 (mexAB-oprM overexpressed); assay: microbe, parasite or virus in culture; type: cell-based, Pseudomonas aeruginosa; conditions: Pseudomonas aeruginosa, read-out: MICs K1455 (↑mexAB-oprM)
# Description: (§2) P. aeruginosa ATCC 27853 was obtained from the American Type Culture Collection (ATCC; Manassas, VA, USA). P. aeruginosa multidrug-resistant isolates were obtained from the CDC and FDA Antibiotic Resistance Isolate Bank (Atlanta, GA, USA). P. aeruginosa DA7232 (gyrA-T83I, parC-S80L) was a kind gift from Prof. Dan I. Andersson, Uppsala University, Uppsala, Sweden, and has been characterized elsewhere. P. aeruginosa strains K767 (WT), K1455 (mexAB-oprM overexpressed), K2415 (mexXY-oprM overexpressed), and K3698 (oprM∆) were obtained from Prof. Keith Poole, Queen’s University, Kingston, Ontario, Canada and have been characterized elsewhere. Bacterial cells were grown in cation-adjusted Mueller Hinton (CAMH) media, brain heart infusion broth (BHI), or tryptic soy agar (TSA) plates were all obtained from Becton, Dickinson, and Company (BD; Franklin Lakes, NJ, USA). Aztreonam, ceftazidime, moxifloxacin, levofloxacin, minocycline, tigecycline, chloramphenicol, nitrocefin, and imipenem were purchased from TOKU-E (Bellingham, WA, USA). Azithromycin was purchased from Tokyo Chemical Industry (Portland, OR, USA). Cotrimoxazole was purchased from Toronto Research Chemicals (Toronto, ON, Canada). Doxycycline and polymyxin B were purchased from Sigma-Aldrich (St. Louis, MO, USA). Ethidium bromide (EtBr) and glucose were purchased from VWR (Radnor, PA, USA). MC-04,124 and TXA01182 were synthesized at TAXIS Pharmaceuticals. Carbonyl cyanide 3-chlorophenylhydrazone (CCCP) was purchased from Enzo Life Sciences (Farmingdale, NY, USA). DiOC2 (3) and propidium iodide were obtained from Thermo Fisher Scientific (Waltham, MA, USA).
# (§3) MIC assays were performed as described previously.
# [9] = tested on: P. aeruginosa K2415 (mexXY-oprM overexpressed); assay: MIC / potentiation assay, strain K2415; type: cell-based, Pseudomonas aeruginosa; conditions: Pseudomonas aeruginosa, read-out: MICs K2415 (↑mexXY-oprM)
# Description: as §2, §3
# CYP1A2, sequence (P05177 whole entry): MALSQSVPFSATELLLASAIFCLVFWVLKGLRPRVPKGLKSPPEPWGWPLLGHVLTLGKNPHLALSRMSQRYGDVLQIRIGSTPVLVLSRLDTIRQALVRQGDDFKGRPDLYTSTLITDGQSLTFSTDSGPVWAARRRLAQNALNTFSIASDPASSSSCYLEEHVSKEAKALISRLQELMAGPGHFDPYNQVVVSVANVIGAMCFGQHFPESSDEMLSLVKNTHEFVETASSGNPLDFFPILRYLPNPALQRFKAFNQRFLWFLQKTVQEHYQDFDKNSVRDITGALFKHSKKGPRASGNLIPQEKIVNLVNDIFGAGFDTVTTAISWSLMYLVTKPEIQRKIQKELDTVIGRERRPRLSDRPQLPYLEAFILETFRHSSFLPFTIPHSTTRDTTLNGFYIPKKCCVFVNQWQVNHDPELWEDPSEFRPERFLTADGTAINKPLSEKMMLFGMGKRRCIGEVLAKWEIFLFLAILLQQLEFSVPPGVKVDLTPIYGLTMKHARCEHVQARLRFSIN
# CYP2C9, sequence (P11712 whole entry): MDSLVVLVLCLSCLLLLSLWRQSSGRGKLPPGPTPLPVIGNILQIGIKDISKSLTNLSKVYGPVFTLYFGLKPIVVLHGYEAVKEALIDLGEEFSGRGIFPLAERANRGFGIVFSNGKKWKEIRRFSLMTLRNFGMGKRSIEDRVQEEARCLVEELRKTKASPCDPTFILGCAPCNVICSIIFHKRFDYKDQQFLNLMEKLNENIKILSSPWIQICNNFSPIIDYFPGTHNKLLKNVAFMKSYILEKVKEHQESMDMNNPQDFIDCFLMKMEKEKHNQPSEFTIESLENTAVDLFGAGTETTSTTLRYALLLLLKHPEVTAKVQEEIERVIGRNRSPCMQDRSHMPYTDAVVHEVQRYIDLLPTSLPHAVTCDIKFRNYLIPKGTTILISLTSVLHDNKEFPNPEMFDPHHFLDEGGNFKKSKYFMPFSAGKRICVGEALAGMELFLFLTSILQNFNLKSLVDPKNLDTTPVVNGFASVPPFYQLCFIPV
# CYP2C19, sequence (P33261 whole entry): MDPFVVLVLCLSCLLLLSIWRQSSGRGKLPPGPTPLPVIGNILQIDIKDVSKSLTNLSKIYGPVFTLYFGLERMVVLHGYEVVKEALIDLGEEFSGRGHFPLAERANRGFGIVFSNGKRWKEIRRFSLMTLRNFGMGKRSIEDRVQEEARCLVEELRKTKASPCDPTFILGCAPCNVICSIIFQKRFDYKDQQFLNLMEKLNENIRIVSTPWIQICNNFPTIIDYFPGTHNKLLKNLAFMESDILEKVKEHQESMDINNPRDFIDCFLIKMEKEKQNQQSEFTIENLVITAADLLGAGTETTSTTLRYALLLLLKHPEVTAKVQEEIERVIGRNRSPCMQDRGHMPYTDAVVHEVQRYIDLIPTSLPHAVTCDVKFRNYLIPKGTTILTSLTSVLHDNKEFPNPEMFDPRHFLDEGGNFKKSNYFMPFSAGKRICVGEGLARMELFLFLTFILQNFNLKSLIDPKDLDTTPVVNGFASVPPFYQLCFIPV
# hERG channel, sequence (Q12809 whole entry): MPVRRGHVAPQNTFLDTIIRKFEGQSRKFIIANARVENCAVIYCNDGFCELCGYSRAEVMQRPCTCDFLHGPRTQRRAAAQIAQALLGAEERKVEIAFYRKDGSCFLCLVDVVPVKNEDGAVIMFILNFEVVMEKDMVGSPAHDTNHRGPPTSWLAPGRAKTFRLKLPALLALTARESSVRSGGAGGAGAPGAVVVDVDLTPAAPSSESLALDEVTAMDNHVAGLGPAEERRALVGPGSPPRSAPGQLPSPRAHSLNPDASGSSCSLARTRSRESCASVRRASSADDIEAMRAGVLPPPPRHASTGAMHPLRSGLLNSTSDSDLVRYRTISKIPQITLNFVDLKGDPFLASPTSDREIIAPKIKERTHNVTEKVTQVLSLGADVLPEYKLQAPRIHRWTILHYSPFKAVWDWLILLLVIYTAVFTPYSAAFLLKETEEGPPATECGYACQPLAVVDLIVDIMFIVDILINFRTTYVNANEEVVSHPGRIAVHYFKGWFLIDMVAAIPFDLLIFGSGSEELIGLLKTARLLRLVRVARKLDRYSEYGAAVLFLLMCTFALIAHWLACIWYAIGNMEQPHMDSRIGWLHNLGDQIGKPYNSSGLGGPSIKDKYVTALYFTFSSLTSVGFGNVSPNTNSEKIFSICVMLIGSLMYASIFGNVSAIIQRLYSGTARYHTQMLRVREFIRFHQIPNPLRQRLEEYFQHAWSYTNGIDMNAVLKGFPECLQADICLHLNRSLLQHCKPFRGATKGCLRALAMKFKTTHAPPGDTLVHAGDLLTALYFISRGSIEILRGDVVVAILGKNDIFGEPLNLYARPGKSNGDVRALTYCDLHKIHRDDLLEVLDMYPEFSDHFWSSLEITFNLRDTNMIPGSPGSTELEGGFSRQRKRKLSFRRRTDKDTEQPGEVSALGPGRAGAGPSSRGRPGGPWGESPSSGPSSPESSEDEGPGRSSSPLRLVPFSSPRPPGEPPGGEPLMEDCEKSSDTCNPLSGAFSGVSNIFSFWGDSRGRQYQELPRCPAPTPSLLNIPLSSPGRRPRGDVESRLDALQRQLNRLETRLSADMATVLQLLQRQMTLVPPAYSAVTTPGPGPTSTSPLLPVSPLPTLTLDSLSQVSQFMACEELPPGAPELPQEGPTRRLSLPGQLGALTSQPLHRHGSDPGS
# CYP2D6, sequence (P10635 whole entry): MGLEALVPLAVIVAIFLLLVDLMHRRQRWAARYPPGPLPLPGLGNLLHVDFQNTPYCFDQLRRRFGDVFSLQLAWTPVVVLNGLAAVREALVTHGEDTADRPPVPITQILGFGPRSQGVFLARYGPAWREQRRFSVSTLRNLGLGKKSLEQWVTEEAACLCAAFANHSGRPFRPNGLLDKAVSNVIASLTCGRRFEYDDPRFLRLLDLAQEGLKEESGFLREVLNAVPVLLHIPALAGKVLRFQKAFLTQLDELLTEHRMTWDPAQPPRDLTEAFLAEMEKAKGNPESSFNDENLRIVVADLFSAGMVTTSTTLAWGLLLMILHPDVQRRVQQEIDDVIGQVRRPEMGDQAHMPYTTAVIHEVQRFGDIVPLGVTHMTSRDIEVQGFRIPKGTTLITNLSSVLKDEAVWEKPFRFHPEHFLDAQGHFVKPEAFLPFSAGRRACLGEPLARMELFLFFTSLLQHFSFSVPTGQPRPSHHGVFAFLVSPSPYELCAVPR
# CYP3A4, sequence (P08684 whole entry): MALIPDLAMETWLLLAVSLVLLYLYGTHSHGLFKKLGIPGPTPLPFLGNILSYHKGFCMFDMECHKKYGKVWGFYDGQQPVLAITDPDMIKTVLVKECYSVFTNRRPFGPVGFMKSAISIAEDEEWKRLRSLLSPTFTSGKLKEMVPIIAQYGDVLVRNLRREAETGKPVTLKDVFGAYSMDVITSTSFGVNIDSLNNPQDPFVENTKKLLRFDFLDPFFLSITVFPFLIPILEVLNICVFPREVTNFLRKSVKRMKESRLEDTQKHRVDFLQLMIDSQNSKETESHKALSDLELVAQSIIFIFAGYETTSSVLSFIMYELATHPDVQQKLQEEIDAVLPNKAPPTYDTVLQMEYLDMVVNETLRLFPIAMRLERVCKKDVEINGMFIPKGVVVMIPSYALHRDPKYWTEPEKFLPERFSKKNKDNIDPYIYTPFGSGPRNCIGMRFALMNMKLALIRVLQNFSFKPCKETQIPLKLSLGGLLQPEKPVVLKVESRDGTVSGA
Structure (SMILES),concentrations without inner membrane disruption (basal PI fluorescence) [1] [µg/mL],inhibition of EtBr efflux [2],ATP depletion (P. aeruginosa ATCC 27853 [3]),"effect on growth, compound alone (P. aeruginosa ATCC 27853 [4])",solubility (Solubility at pH 7.4) [µM],HLM and RLM Metabolic Stability (HLM) [5] [%],HLM and RLM Metabolic Stability (RLM) [6] [%],IC50 (CYP1A2) [µM],IC50 (CYP2C19) [µM],IC50 (CYP2C9) [µM],IC50 (CYP2D6) [µM],IC50 (CYP3A4) [µM],IC50 [7] [µM],hemolytic activity (human RBCs),IC50 (hERG channel) [µM],MIC [8] [µg/mL],MIC [9] [µg/mL]
"Cl.NC[C@@H]1CN[C@H](CNC(=O)c2cc3ccc(-c4ccc(F)cc4)cc3[nH]2)C1 [TXA09155, N-(((2S,4R)-4-(aminomethyl)pyrrolidine-2-yl)methyl)-6-(4-fluorophenyl)-1H-indole-2-carboxamide hydrochloride salt]",< 50,concentration-dependent inhibition,did not result in ATP depletion,did not affect the growth,> 155,>60,>60,> 100,> 100,> 100,67.2,28.5,> 40,did not display hemolytic activity,16,,
C[C@H]1COc2c(N3CCN(C)CC3)c(F)cc3c(=O)c(C(=O)O)cn1c23 [Levofloxacin],,,,,,,,,,,,,,,,4,4
